Measured values from ChEMBL document CHEMBL1212936, “Discovery of 2-[1-(4-chlorophenyl)cyclopropyl]-3-hydroxy-8-(trifluoromethyl)quinoline-4-carboxylic acid (PSI-421), a P-selectin inhibitor with improved pharmacokinetic properties and oral efficacy in models of vascular injury” (J Med Chem, 2010).
pIC50: −log10 of the molar value. Converted amounts (≈) assume the structure as drawn.

Columns and labels:
[1] = molecular target: T1, P-selectin glycoprotein ligand 1 (Homo sapiens) (UniProt Q14242); experiment: Inhibition of recombinant PSGL-1 at 250 uM by surface plasmon resonance assay
T1 sequence (whole entry): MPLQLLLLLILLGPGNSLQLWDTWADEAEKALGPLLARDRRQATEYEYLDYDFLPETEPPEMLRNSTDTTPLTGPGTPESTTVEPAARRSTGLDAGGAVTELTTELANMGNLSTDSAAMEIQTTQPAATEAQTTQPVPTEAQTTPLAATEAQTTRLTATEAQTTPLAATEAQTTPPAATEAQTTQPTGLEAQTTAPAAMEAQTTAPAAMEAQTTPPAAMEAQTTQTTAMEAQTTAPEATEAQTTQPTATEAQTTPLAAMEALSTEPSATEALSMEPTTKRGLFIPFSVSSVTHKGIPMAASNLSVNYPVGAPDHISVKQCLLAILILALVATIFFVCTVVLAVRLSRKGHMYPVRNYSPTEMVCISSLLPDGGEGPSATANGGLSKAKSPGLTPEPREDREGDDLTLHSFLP

Rattus norvegicus = experiment: Dose normalized AUC in Sprague-Dawley rat measured per mg of plasma at 3 mg/kg, iv and 10 mg/kg, po; type: ADME, organism-based; conditions: in vivo
[2] = Aqueous solubility of the compound at pH 6.6; type: physicochemical; conditions: aqueous solution
[3] = Clearance in Sprague-Dawley rat at 3 mg/kg, iv and 10 mg/kg, po; type: ADME, organism-based; conditions: in vivo
[4] = Oral bioavailability in Sprague-Dawley rat at 10 mg/kg; type: ADME, organism-based; conditions: in vivo
Mus musculus [5] = experiment: Reduction of leukocytes rolling flux in acute intravital microscopy model of C57B6 mouse cremasteric postcapillary venules at 50 mg/kg, po after 35 mins relative to control; type: functional; set-up: scale not given: the % may be the effect or the level left
[6] = molecular target: T2, P-selectin glycoprotein ligand 1 (Homo sapiens, UniProt Q14242); experiment: Inhibition of recombinant PSGL-1 by surface plasmon resonance assay
T2 sequence (Q14242 whole entry): T1 sequence (whole entry)

CYP2C9 = CYP2C9 (Homo sapiens, UniProt P11712); experiment: Inhibition of CYP2C9 at 3 uM; type: ADME
Chain of CYP2C9 (P11712 whole entry): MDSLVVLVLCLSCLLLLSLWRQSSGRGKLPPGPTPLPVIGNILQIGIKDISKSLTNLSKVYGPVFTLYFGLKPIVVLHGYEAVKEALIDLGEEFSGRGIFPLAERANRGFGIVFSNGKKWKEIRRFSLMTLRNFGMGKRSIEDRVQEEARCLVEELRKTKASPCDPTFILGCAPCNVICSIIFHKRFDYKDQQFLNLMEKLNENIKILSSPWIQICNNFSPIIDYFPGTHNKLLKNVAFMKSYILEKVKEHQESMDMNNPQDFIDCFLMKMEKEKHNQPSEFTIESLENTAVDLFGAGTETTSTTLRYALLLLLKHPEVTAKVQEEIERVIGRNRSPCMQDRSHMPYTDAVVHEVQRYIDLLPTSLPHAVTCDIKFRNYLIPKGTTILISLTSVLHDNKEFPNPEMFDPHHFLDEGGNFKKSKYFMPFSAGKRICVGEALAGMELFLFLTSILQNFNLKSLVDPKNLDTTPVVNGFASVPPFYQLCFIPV

[7] = Half life in cynomolgus monkey liver microsomes; type: ADME, Macaca fascicularis, Microsome
[8] = Half life in human liver microsomes; type: ADME, Microsome
[9] = Half life in C57B6 mouse liver microsomes; type: ADME, Microsome
[10] = Clearance in C57B6 mouse at 2 mg/kg, iv and 10 mg/kg, po; type: ADME, organism-based; conditions: in vivo
[11] = Aqueous solubility of the compound at pH 1; type: physicochemical; conditions: aqueous solution
Cynomolgus monkey = experiment: Dose normalized AUC in cynomolgus monkey measured per mg of plasma at 5 mg/kg, iv and po; type: ADME, organism-based, Macaca fascicularis; set-up: dose 5 mg/kg, route oral; conditions: in vivo
[12] = Oral bioavailability in Beagle dog at 10 mg/kg; type: ADME, organism-based, Canis lupus familiaris; conditions: in vivo
[13] = Clearance in Beagle dog at 2 mg/kg, iv and 10 mg/kg, po; type: ADME, organism-based, Canis lupus familiaris; conditions: in vivo
[14] = Oral bioavailability in cynomolgus monkey at 5 mg/kg; type: ADME, organism-based, Macaca fascicularis; conditions: in vivo
[15] = Aqueous solubility of the compound at pH 7.4; type: physicochemical; conditions: buffer
Mus musculus [16] = experiment: Dose normalized AUC in C57B6 mouse measured per mg of plasma at 2 mg/kg, iv and 10 mg/kg, po; type: ADME, organism-based; conditions: in vivo
[17] = Oral bioavailability in C57B6 mouse at 10 mg/kg; type: ADME, organism-based; conditions: in vivo
[18] = Aqueous solubility of the compound at pH 4.5; type: physicochemical; conditions: aqueous solution
Canis familiaris = experiment: Dose normalized AUC in Beagle dog measured per mg of plasma at 2 mg/kg, iv and 10 mg/kg, po; type: ADME, organism-based, Canis lupus familiaris; conditions: in vivo
[19] = Half life in Beagle dog liver microsomes; type: ADME, Canis lupus familiaris, Microsome
[20] = Aqueous solubility of the compound at pH 9; type: physicochemical; conditions: buffer
[21] = Half life in Sprague-Dawley rat liver microsomes; type: ADME, Microsome

SMILES	inhibition [1] [%]	AUC (Rattus norvegicus) [ng·h/mL]	solubility [2] [µg/mL]	clearance [3] [mL/min/kg]	bioavailability [4] [%]	also measured
O=C(O)c1c(O)c(C2(c3ccc(F)cc3)CC2)nc2c(C(F)(F)F)cccc12	56	14282	2900 (≈ 7410 µM)	0.5	39	–
CCC(c1ccccc1)c1nc2c(C(F)(F)F)cccc2c(C(=O)O)c1O (stereo unspecified)	55	–	600 (≈ 1600 µM)	–	–	–
O=C(O)c1c(O)c(C2(c3ccccc3)CC2)nc2c(C(O)(C(F)(F)F)C(F)(F)F)cccc12	–	5035	1500 (≈ 3180 µM)	1	44	Activity (Mus musculus [5]): 60%
CCc1cccc2c(C(=O)O)c(O)c(C3(c4ccc(C(F)(F)F)cc4)CC3)nc12	–	2428	250 (≈ 623 µM)	9.4	100	–
CC(=O)N[C@H]1[C@H]([C@H](O)[C@H](O)CO)O[C@@](O[C@H]2[C@@H](O)[C@@H](CO)O[C@@H](O[C@@H]([C@H](O[C@@H]3O[C@@H](C)[C@@H](O)[C@@H](O)[C@@H]3O)[C@H](C=O)NC(C)=O)[C@H](O)CO)[C@@H]2O)(C(=O)O)C[C@@H]1O [SIALYL LEWIS X]	–	–	–	–	–	pIC50 [6]: 1.82
O=C(O)c1c(O)c(C2(c3ccccc3)CC2)nc2c3c(ccc12)CCCC3	–	1925	–	3.9	45	pIC50 [6]: 3.60
O=C(O)c1c(O)c(C2(c3ccccc3Cl)CC2)nc2c(C(F)(F)F)cccc12	57	1336	760 (≈ 1860 µM)	2.4	19	–
O=C(O)c1c(O)c(C2(c3ccc(Cl)cc3)CCC2)nc2c(C(F)(F)F)cccc12	0	–	–	–	–	–
Cc1ccc(C2(c3nc4c(C)cc(C)cc4c(C(=O)O)c3O)CC2)cc1	11	–	–	–	–	inhibition at 3 µM (CYP2C9): 55%
O=C(O)c1c(O)c(Cc2ccc(Cl)cc2)nc2c3c(ccc12)CCCC3 [PSI-697]	–	440	< 10	11	27	half-life [7]: 44 min; half-life [8]: > 60 min; half-life [9]: 14 min; clearance [10]: 11.6 mL/min/kg; solubility [11]: < 1 µg/mL; AUC (Cynomolgus monkey): 1202 ng·h/mL; bioavailability [12]: 58%; clearance [13]: 0.9 mL/min/kg; bioavailability [14]: 40%; solubility [15]: 90 µg/mL (≈ 245 µM); AUC (Mus musculus [16]): 1510 ng·h/mL; bioavailability [17]: 100%; solubility [18]: < 1 µg/mL; AUC (Canis familiaris): 11666 ng·h/mL; half-life [19]: > 60 min; solubility [20]: 75 µg/mL (≈ 204 µM); half-life [21]: 2 min; pIC50 [6]: 3.82
O=C(O)c1c(O)c(C2(c3ccc(C(F)(F)F)cc3)CC2)nc2c(C(F)(F)F)cccc12	47	13800	200 (≈ 453 µM)	0.4	31	–
O=C(O)c1c(O)c(C2(c3cccc(C(F)(F)F)c3)CC2)nc2c(C(F)(F)F)cccc12	46	–	1000 (≈ 2270 µM)	–	–	–
Cc1cc(C)c2nc(C3(c4ccccc4)CC3)c(O)c(C(=O)O)c2c1	20	–	–	–	–	inhibition at 3 µM (CYP2C9): 54%
CCc1cccc2c(C(=O)O)c(O)c(C3(c4ccc(Cl)cc4)CC3)nc12	–	13986	140 (≈ 381 µM)	2.4	100	–
CC(C)c1cccc2c(C(=O)O)c(O)c(C3(c4ccccc4)CC3)nc12	–	2663	370 (≈ 1070 µM)	9	100	–
Cc1cc(C)c2nc(C3(c4ccc(F)cc4)CC3)c(O)c(C(=O)O)c2c1	< 10	–	–	–	–	inhibition at 3 µM (CYP2C9): 55%
COc1ccc(C2(c3nc4c(C(F)(F)F)cccc4c(C(=O)O)c3O)CC2)cc1	26	–	–	–	–	–
CC(C)C(c1ccc(Cl)cc1)c1nc2c(C(F)(F)F)cccc2c(C(=O)O)c1O (stereo unspecified)	< 10	–	–	–	–	–
O=C(O)c1c(O)c(C2(c3cccs3)CC2)nc2c(C(F)(F)F)cccc12	15	–	–	–	–	–
Cc1cc(C(F)(F)F)c2nc(C3(c4ccc(Cl)cc4)CC3)c(O)c(C(=O)O)c2c1	65	–	–	–	–	inhibition at 3 µM (CYP2C9): 72%
Cc1ccc(C2(c3nc4c(C)c(C)ccc4c(C(=O)O)c3O)CC2)cc1	24	–	–	–	–	inhibition at 3 µM (CYP2C9): 47%
CC(Cc1nc2c(C(F)(F)F)cccc2c(C(=O)O)c1O)c1ccccc1 (stereo unspecified)	46	–	680 (≈ 1810 µM)	–	–	–
CC(C)C(c1ccccc1)c1nc2c(C(F)(F)F)cccc2c(C(=O)O)c1O (stereo unspecified)	58	–	30 (≈ 77 µM)	–	–	–

SMILES	inhibition [1] [%]	AUC (Rattus norvegicus) [ng·h/mL]	solubility [2] [µg/mL]	clearance [3] [mL/min/kg]	bioavailability [4] [%]	also measured
CC(C)c1cccc2c(C(=O)O)c(O)c(C3(c4ccc(F)cc4)CC3)nc12	–	1263	2500 (≈ 6840 µM)	8.7	65	–
CCc1cc(C(F)(F)F)c2nc(C3(c4ccccc4)CC3)c(O)c(C(=O)O)c2c1	40	–	–	–	–	inhibition at 3 µM (CYP2C9): 86%
O=C(O)c1c(O)c(C2(c3ccc(OC(F)(F)F)cc3)CC2)nc2c(C(F)(F)F)cccc12	29	–	–	–	–	–
Cc1ccc2c(C(=O)O)c(O)c(C3(c4ccc(Cl)cc4)CC3)nc2c1C	–	1735	190 (≈ 517 µM)	7	75	–
O=C(O)c1c(O)c(C2(c3ccc(Br)cc3)CC2)nc2c(C(F)(F)F)cccc12	64	–	420 (≈ 929 µM)	–	–	–
O=C(O)c1c(O)c(C2Cc3ccccc32)nc2c(C(F)(F)F)cccc12 (stereo unspecified)	45	–	800 (≈ 2230 µM)	–	–	–
O=C(O)c1c(O)c(C2(c3ccc(Cl)cc3)CC2)nc2c(C(F)(F)F)cc(Br)cc12	< 10	–	–	–	–	inhibition at 3 µM (CYP2C9): 65%
CC(C)(c1ccccc1)c1nc2c(C(F)(F)F)cccc2c(C(=O)O)c1O	59	1472	2810 (≈ 7490 µM)	3.7	93	–
Cc1cc(C(F)(F)F)cc2c(C(=O)O)c(O)c(C3(c4ccc(Cl)cc4)CC3)nc12	40	–	–	–	–	inhibition at 3 µM (CYP2C9): 42%
Cc1cc(C)c2nc(C3(c4ccc(Cl)cc4)CC3)c(O)c(C(=O)O)c2c1	47	–	–	–	–	inhibition at 3 µM (CYP2C9): 17%
O=C(O)c1c(O)c(C2(c3ccc(Cl)cc3)CC2)nc2c(C(F)(F)F)cc(Cl)cc12	< 10	–	–	–	–	inhibition at 3 µM (CYP2C9): 72%
CC(c1ccccc1)c1nc2c3c(ccc2c(C(=O)O)c1O)CCCC3 (stereo unspecified)	–	1259	–	9	66	pIC50 [6]: 3.76
Cc1cc(C(F)(F)F)c2nc(C3(c4ccccc4)CC3)c(O)c(C(=O)O)c2c1	40	–	–	–	–	inhibition at 3 µM (CYP2C9): 87%
O=C(O)c1c(O)c(Cc2ccccc2)nc2c3c(ccc12)CCCC3	–	–	–	–	–	pIC50 [6]: 3.38
CCc1cc(C(F)(F)F)cc2c(C(=O)O)c(O)c(C3(c4ccc(Cl)cc4)CC3)nc12	< 10	–	–	–	–	inhibition at 3 µM (CYP2C9): 43%
O=C(O)c1c(O)c(Cc2ccc(Cl)cc2)nc2c(C(F)(F)F)cccc12	40	–	440 (≈ 1150 µM)	–	–	–
O=C(O)c1c(O)c(C2Cc3ccccc3C2)nc2c(C(F)(F)F)cccc12	35	340	700 (≈ 1880 µM)	28	49	–
CC(Cc1ccccc1)c1nc2c(C(F)(F)F)cccc2c(C(=O)O)c1O (stereo unspecified)	49	–	1550 (≈ 4130 µM)	–	–	–
O=C(O)c1c(O)c(C2(c3ccsc3)CC2)nc2c(C(F)(F)F)cccc12	7	–	–	–	–	–
CCc1cc(C(F)(F)F)c2nc(C3(c4ccc(Cl)cc4)CC3)c(O)c(C(=O)O)c2c1	< 10	–	–	–	–	inhibition at 3 µM (CYP2C9): 81%
CC(c1ccccc1)c1nc2c(C(F)(F)F)cccc2c(C(=O)O)c1O (stereo unspecified)	50	–	1550 (≈ 4290 µM)	–	–	–
O=C(O)c1c(O)c(C2(c3cccc(Cl)c3)CC2)nc2c(C(F)(F)F)cccc12	66	–	300 (≈ 736 µM)	–	–	–
O=C(O)c1c(O)c(C2(c3ccccc3)CC2)nc2c(C(F)(F)F)cccc12	44	–	2100 (≈ 5630 µM)	–	–	–
